Tests used:
[1] = test system: MCF-7 (breast cancer) cell line; experiment: MTT cell viability assay, MCF-7; assay type: cell-based, human; details: Homo sapiens, MCF7; for viability at 100 µM: MCF-7, MTT, 72 h, read-out: Viability of cell line in the presence of 100 μM of the tested compound
Description: (§1) Compounds 8–24 were evaluated in vitro for their cytotoxic effect against three human cancer cell lines, i.e., HeLa (cervical cancer), HCT-116 (colon cancer) and MCF-7 (breast cancer), and the non-tumor cell line HaCaT using the MTT assay after 72 h of incubation. The results of tests are presented in Table 1 as IC50, indicating the concentration required for 50% inhibition of cell viability. Compounds 8–10 and 14–18 are not presented in the Table 1 because of their low potency (IC50 > 100 µM).
(§2) All chemicals, if not stated otherwise, were obtained from Sigma-Aldrich (St. Louis, MO, USA). The MCF-7, HeLa and HaCaT cell lines were purchased from Cell Lines Services (Eppelheim, Germany), and the HCT-116 cell line was purchased from ATCC (ATCC-No: CCL-247). The cells were cultured in Dulbecco’s modified Eagle’s medium (DMEM) supplemented with 10% fetal bovine serum, 2 mM glutamine, 100 units/mL of penicillin and 100 μg/mL of streptomycin. The cultures were maintained in a humidified atmosphere with 5% CO2 at 37 °C, in an incubator (Heraeus, HeraCell).
(§3) Cytotoxicity assay: Cell viability was determined using the MTT (3-(4,5-dimethylthiazol-2-yl)-2,5diphenyltetrazoliumbromide) assay. The cells were seeded in 96-well plates at a density of 5 × 10^3 cells/well and treated for 24, 48 and 72 h with the examined compounds in the concentration range 1–100 μM. Following treatment, MTT (0.5 mg/mL) was added to the medium, and the cells were further incubated for 2 h at 37 °C. the cells were lysed with DMSO, and the absorbance of the formazan solution was measured at 550 nm with a plate reader (Victor, 1420 multilabel counter). The experiment was performed in triplicate. The values are expressed as the mean ± SD of at least three independent experiments.

[2] = test system: HCT-116 (colon cancer) cell line; experiment: MTT cell viability assay, HCT-116; assay type: cell-based; details: Homo sapiens, 72 h of incubation
Description: as §1, §2, §3

[3] = In vitro metabolic stability assay; assay type: in vitro ADME, human; details: for half-life at 10 μM: pH 7.4, human liver microsomes 0.5 mg/mL, 1 mM NADPH, 10 μM compound, 37 °C, n = 3, read-out: in vitro metabolic half-life t1/2
Description: Human liver microsomes along with NADPH were used to assess their susceptibility to undergo first-phase oxidation reactions. The progress of biotransformation was followed by liquid chromatography–mass spectrometry. In order to support the in vitro results, we performed in silico calculations using the Human Liver Microsome-based model for CYP-mediated oxidations provided by the Xenosite online tool.
Stock solutions of the studied compounds were prepared at a concentration of 10 mM in DMSO. […] The incubation mixture contained the studied derivative at a 10 μM concentration, 1 mM NADPH (Sigma-Aldrich) and 0.5 mg/mL of human liver microsomes (HLM, Sigma-Aldrich) in potassium phosphate buffer (0.1 M, pH 7.4). The incubation was carried out in a thermostat at 37 °C and started by the addition of the compound of interest. Then, 20 μL samples were taken after 5, 15, 30, 45 and 60 min. The enzymatic reaction was terminated by the addition of an equal volume of ice-cold acetonitrile containing 10 μM sulfamethoxazole as an internal standard. Control incubations were performed without NADPH as a negative control reflecting NADPH-independent processes, such as chemical degradation and precipitation. After collection, the samples were immediately centrifuged (10 min, 10,000 rpm), and the resulting supernatant was directly analyzed or kept at −80 °C until LC-MS analysis. The natural logarithm of a compound over the IS peak area ratio was plotted vs. the incubation time.
The LC-MS analysis was performed on an Agilent 1260 system coupled to SingleQuad 6120 mass spectrometer (Agilent Technologies, Santa Clara, CA, USA). Poroshell EC-C18 (2.1 mm × 150 mm, 2.7 μm, Agilent Technologies, Santa Clara, CA, USA) was used in reversed-phase mode with gradient elution starting with 90% of phase A (0.1% formic acid in water) and 10% of phase B (0.1% dormic acid in acetonitrile). […] The total analysis time was 21 min at 25 °C, the flow rate was 0.5 mL/min, and the injection volume was 20 μL. The mass spectrometer was equipped with an electrospray ion source and operated in positive ionization mode. The mass analyzer was set for each individual compound to detectthe [M+H]^+ protonated molecule. The MSD parameters of the ESI source were as follows: nebulizer pressure 40 psig (N2), drying gas […] (N2), drying gas temperature 300 °C, capillary voltage 3.0 kV, fragmentor voltage 150 V.

Row | Compound | IC50 ([1]; MTT assay, 72 h of incubation) | IC50 [2] | half-life at 10 μM [3] | viability at 100 µM [1] | relative metabolic stability in vitro ([3]; human liver microsomes with NADPH, order 12 > 13 > 11)
1 | Cc1cc(S(=O)(=O)NC(=N)n2ccn(C)c2=S)c(SCc2ccc(Cl)cc2)cc1Cl [Compound 11, 4-Chloro-N-[imino(3-methyl-2-thioxo-2,3-dihydro-1H-imidazol-1-yl)methyl]-5-methyl-2-(4-chlorobenzylthio)benzenesulfonamide] | > 100 µM | 11 ± 0.3 µM | 9.1 min |  | 
2 | Cc1cc(S(=O)(=O)NC(=N)n2ccn(C)c2=S)c(SCc2cccc3ccccc23)cc1Cl [Compound 13, 4-Chloro-N-[imino(3-methyl-2-thioxo-2,3-dihydro-1H-imidazol-1-yl)methyl]-5-methyl-2-(naphthalen-1-ylmethylthio)benzenesulfonamide] |  | 73 ± 2 µM | 13.9 min | 100% | 
3 | Cc1cc(S(=O)(=O)NC(=N)n2ccn(C)c2=S)c(SCc2cc3c(cc2Cl)OCO3)cc1Cl [Compound 12] |  | > 100 µM | 20.3 min | 100% | exhibited the best stability in vitro among the studied set of compounds
